According to ChEMBL document CHEMBL4680185, “Discovery of novel cyclin-dependent kinase (CDK) and histone deacetylase (HDAC) dual inhibitors with potent in vitro and in vivo anticancer activity” (Eur J Med Chem, 2020):
The source made the active and inactive calls. No cut-off for these calls is given here.

How the values were obtained:
HCT-116 [1] = assay: cells; format: functional; conditions: Homo sapiens, time 72 hrs, read-out: GI
NCI-H460 [2] = assay: cells; format: functional, cell-based; conditions: Homo sapiens, NCI-H460, 72 h
Description: Antiproliferative activity against human H460 cells assessed as inhibition of cell growth incubated for 72 hrs by CCK-8 assay

[3] = Cytotoxicity against mouse NIH/3T3 cells incubated for 72 hrs by CCK-8 assay; format: cell-based; conditions: NIH3T3, 72 h
Histone deacetylase 1 = Histone deacetylase 1 (Homo sapiens, UniProt Q13547); assay: Inhibition of human recombinant HDAC1 preincubated for 10 mins followed by addition of substrate fluor De Lys SIRT1 deacetylase measured after 30 mins by fluorescent plate reader analysis
Histone deacetylase 2 = Histone deacetylase 2 (Homo sapiens, UniProt Q92769); assay: Inhibition of human recombinant HDAC2 preincubated for 10 mins followed by addition of substrate fluor De Lys green measured after 30 mins by fluorescent plate reader analysis
[4] = biological target: Histone deacetylase 3/NCoR1 (Homo sapiens, UniProt O15379); assay: Inhibition of human recombinant HDAC3/NCOR1 complex preincubated for 10 mins followed by addition of substrate fluor De Lys SIRT1 deacetylase measured after 30 mins by fluorescent plate reader analysis; format: protein-complex assay
CDK1/Cyclin A = CDK1/Cyclin A (Homo sapiens, UniProt P06493); assay: Inhibition of recombinant human full length CDK1/cyclin A2 expressed in Sf9 cells incubated for 10 mins by ADP-Glo reagent assay
CDK2/Cyclin A2 = CDK2/Cyclin A2 (Homo sapiens, UniProt P24941); assay: Inhibition of recombinant human full length CDK2/cyclin A2 incubated for 10 mins by ADP-Glo reagent assay; format: protein-complex assay
NCI-H460 [5] = assay: Antimigratory activity against human H460 cells assessed as inhibition of cell migration at 0.5 uM measured after 48 hrs by cell scratch assay; format: functional, cell-based
HCT-116 [6] = assay: Cell cycle arrest in human HCT116 cells assessed as increase in number of cells at G2/M phase at 0.5 to 2 uM incubated for 24 hrs by propidium iodide staining based flow cytometry; format: functional; conditions: dose 0.5-2 µM
NCI-H460 [7] = assay: Cell cycle arrest in human H460 cells assessed as increase in number of cells at G2/M phase at 0.5 to 2 uM incubated for 24 hrs by propidium iodide staining based flow cytometry; format: functional; conditions: dose 0.5-2 µM
HeLa [8] = assay: Cell cycle arrest in human HeLa cells assessed as increase in number of cells at G2/M phase at 0.5 to 2 uM incubated for 24 hrs by propidium iodide staining based flow cytometry; format: functional; conditions: dose 0.5-2 µM
HCT-116 [9] = assay: Induction of apoptosis in human HCT116 cells assessed as number of apoptotic cells at 2 uM incubated for 48 hrs by annexin V-FITC/PI based flow cytometric analysis relative to control; format: functional
HeLa [10] = assay: Induction of apoptosis in human HeLa cells assessed as number of apoptotic cells at 0.5 to 2 uM incubated for 48 hrs by annexin V-FITC/PI based flow cytometric analysis; format: functional, cell-based; conditions: dose 0.5-2 µM
[11] = biological target: Cyclin-dependent kinase 2 (Homo sapiens) (UniProt P24941); assay: Inhibition of CDK2 in human A375 cells at 1 uM measured after 12 hr by DAPI staining based immunofluorescence analysis; format: cell-based; conditions: A-375
[12] = Tmax in ICR mouse at 20 mg/kg, ip by LC-MS/MS analysis; format: ADME, organism-based; conditions: in vivo
[13] = Cmax in ICR mouse at 20 mg/kg, ip by LC-MS/MS analysis; format: ADME, organism-based; design: route intraperitoneal, dose 20 mg/kg; conditions: in vivo
[14] = AUC (0 to infinity) in ICR mouse at 20 mg/kg, ip by LC-MS/MS analysis; format: ADME, organism-based; design: time infinity, route intraperitoneal, dose 20 mg/kg; conditions: in vivo
[15] = Biovailability in ICR mouse at 20 mg/kg, ip; format: ADME, organism-based; conditions: in vivo
[16] = Toxicity in BALB/C nude mouse xenografted with HCT116 cells assessed as effect on body weight at 12.5 to 25 mg/kg, ip once daily for 21 days; format: organism-based; conditions: in vivo, 504 h, dose 12.5-25 mg/kg, time 21 day
HCT-116 [17] = assay: Antitumor activity against human HCT116 cells xenografted in BALB/C nude mouse assessed reduction in tumor growth at 12.5 mg/kg, ip once daily for 21 days relative to control; format: functional; conditions: HCT-116, ip, 504 h, time 21 day, read-out: TGI
HCT-116 [18] = assay: Antitumor activity against human HCT116 cells xenografted in BALB/C nude mouse assessed reduction in tumor growth at 25 mg/kg, ip once daily for 21 days relative to control; format: functional; conditions: HCT-116, ip, 504 h, time 21 day, read-out: TGI
A-375 = assay: Induction of ROS generation in human A375 cells at 1 uM measured after 24 hrs by fluorescence microscopic analysis

| Structure (SMILES) | inhibition of growth at 8 µM (HCT-116 [1]) | IC50 (NCI-H460 [2]) | IC50 [3] | IC50 (Histone deacetylase 1) | IC50 (Histone deacetylase 2) | IC50 [4] | IC50 (CDK1/Cyclin A) | IC50 (CDK2/Cyclin A2) | inhibition (NCI-H460 [5]) | Activity (HCT-116 [6]) | Activity (NCI-H460 [7]) | Activity (HeLa [8]) | Activity (HCT-116 [9]) | Activity (HeLa [10]) | inhibition [11] | Tmax [12] | Cmax [13] | AUC [14] | bioavailability [15] | Activity (A-375) | also measured |
| --- | --- | --- | --- | --- | --- | --- | --- | --- | --- | --- | --- | --- | --- | --- | --- | --- | --- | --- | --- | --- | --- |
| Nc1ccccc1NC(=O)c1ccc(CNC(=O)c2n[nH]cc2NC(=O)c2c(Cl)cccc2Cl)cc1 | 73.8% | 4190 nM | 4470 nM | 6.4 nM | 0.25 nM | 45 nM | 8.63 nM | 0.3 nM | Active | Active | Active | Active | 60.6% | Active | Active | 2 h | 7570 ng/mL | 30700 ng·h/mL | 63.6% | Active | Activity [16]: Non-Toxic; inhibition in vivo at 12.5 mg/kg (HCT-116 [17]): 37%; inhibition in vivo at 25 mg/kg (HCT-116 [18]): 51% |
| Nc1ccccc1NC(=O)Cc1ccc(NC(=O)c2n[nH]cc2NC(=O)c2c(Cl)cccc2Cl)cc1 | 78% | 2630 nM | 4640 nM | 240 nM | 0.24 nM | > 1000 nM | 12.6 nM | 0.56 nM | Active | Active | Active | Active | 77.1% | Active | Active | 1 h | 2170 ng/mL | 7200 ng·h/mL | 27.8% | Active |  |
